Some results are limits rather than exact numbers.

One data set relates to L6. Description: Cytotoxicity against rat L6 cells after 70 hrs by Alamar Blue assay. The data set is classed as cell-based. Conditions: L6, 70 h. Background: The colour change of resazurin is a common sign of viable cells or microbes.
Data set [1] concerns Plasmodium falciparum. Description: Antiplasmodial activity against erythrocytic stage of multidrug-resistant Plasmodium falciparum Thailand K1 infected in human A positive RBC after 48 hrs by [3H]hypoxanthine incorporation assay. Type of data set: functional, organism-based.
The test system of data set [2] is Plasmodium falciparum. Description: Antiplasmodial activity against erythrocytic stage of chloroquine-resistant Plasmodium falciparum IndoChina W2 infected in human A positive RBC after 48 hrs by [3H]hypoxanthine incorporation assay. Type of data set: functional, organism-based.
Data set [3] can be described thus: Selectivity index, ratio of IC50 for rat L6 cells to IC50 for erythrocytic stage of chloroquine-resistant Plasmodium falciparum IndoChina W2. The data set is classed as toxicity, cell-based. Conditions: read-out: Ratio IC50.
Data set [4] relates to Plasmodium falciparum. Description: Ratio of dihydroartemisinin IC50 to compound IC50 for erythrocytic stage of chloroquine-resistant Plasmodium falciparum IndoChina W2. Type of data set: functional.

On to `O=C(N[C@@H](c1ccccc1)[C@@H](O)C(=O)O)c1ccccc1`, for which the IC50 (commonly the midpoint of a concentration-inhibition curve) with L6 is above 100000 nM; with Plasmodium falciparum [1], above 10000 nM; in the data set on Plasmodium falciparum [2], above 10000 nM.
For `O=C(N[C@@H](c1ccccc1)[C@@H](O)C(=O)NCc1cn(Cc2cccc(Nc3ccnc4cc(Cl)ccc34)c2)nn1)c1ccccc1`, in data set [3], the selectivity ratio is 242. Further, the IC50 in the data set with L6 amounted to 67900 nM; in the data set with Plasmodium falciparum [1], 2440 nM; in the data set on Plasmodium falciparum [2] it was 280 nM.
For the compound `[N-]=[N+]=NCCNc1ccnc2cc(Cl)ccc12`, in the data set on Plasmodium falciparum [2], the IC50 came to 290 nM.
`CC(=O)O[C@@H](C(=O)O)[C@@H](NC(=O)c1ccccc1)c1ccccc1`: the IC50 was above 100000 nM in the data set on L6, above 10000 nM with Plasmodium falciparum [1] and above 10000 nM in the data set with Plasmodium falciparum [2].
In the case of `O=C(N[C@@H](c1ccccc1)[C@@H](O)C(=O)NCc1cn(CCCNc2ccnc3cc(Cl)ccc23)nn1)c1ccccc1`, the selectivity ratio in data set [3] was determined as 52.2. Moreover, the IC50 was determined as 88200 nM in the data set with L6, 390 nM with Plasmodium falciparum [1] and 1690 nM in the data set with Plasmodium falciparum [2].
The like results for `OCc1cccc(Nc2ccnc3cc(Cl)ccc23)c1` were, in that order, 70.4, 21100 nM, 300 nM and 300 nM.
On to `[N-]=[N+]=NCc1ccccc1Nc1ccnc2cc(Cl)ccc12`, for which the IC50 in the data set on Plasmodium falciparum [2] was found to be 220 nM.
For the compound `C[C@H]1[C@H](OC(=O)[C@H](O)[C@@H](NC(=O)c2ccccc2)c2ccccc2)O[C@@H]2O[C@@]3(C)CC[C@H]4[C@H](C)CC[C@@H]1[C@@]24OO3`, the “Ratio IC50” value in the data set with Plasmodium falciparum [4] stood at 3. Besides, the selectivity ratio in data set [3] was 206. The IC50 was found to be 1030 nM in the data set on L6, 0.7 nM with Plasmodium falciparum [1] and 5 nM with Plasmodium falciparum [2].
With `C[C@@H]1CC[C@H]2[C@@H](C)C(=O)O[C@@H]3O[C@@]4(C)CC[C@@H]1[C@]32OO4` [ARTEMISININ], the IC50 in the data set with Plasmodium falciparum [1] was 3.2 nM; in the data set with Plasmodium falciparum [2] it was 15 nM.
As to `O=C(N[C@@H](c1ccccc1)[C@@H](O)C(=O)NCCNc1ccnc2cc(Cl)ccc12)c1ccccc1`, the selectivity ratio in data set [3] was 27. Further, the figures for the IC50 in the data set on L6, with Plasmodium falciparum [1] and in the data set with Plasmodium falciparum [2] were 15100 nM, 360 nM and 560 nM, respectively.
In turn, `O=C(N[C@@H](c1ccccc1)[C@@H](O)C(=O)OCCNc1ccnc2cc(Cl)ccc12)c1ccccc1` displayed an IC50 in the data set on Plasmodium falciparum [2] of 390 nM.
On to `CC(=O)O[C@@H](C(=O)OCCCNc1ccnc2cc(Cl)ccc12)[C@@H](NC(=O)c1ccccc1)c1ccccc1`, for which the selectivity ratio in data set [3] came out at 151. In addition, the IC50 in the data set with L6 came to 24200 nM; in the data set on Plasmodium falciparum [1], 220 nM; with Plasmodium falciparum [2], 160 nM.
The like results for `C[C@H]1[C@@H](O)O[C@@H]2O[C@@]3(C)CC[C@H]4[C@H](C)CC[C@@H]1[C@@]24OO3` (mixture of isomers) [ARTENIMOL] were, in that order, 243, 730 nM, 1.8 nM and 3 nM.
The like results for `CC(=O)O[C@@H](C(=O)OCCNc1ccnc2cc(Cl)ccc12)[C@@H](NC(=O)c1ccccc1)c1ccccc1` were, in that order, 114, 25200 nM, 250 nM and 220 nM.
With `COc1cc([C@@H]2c3cc4c(cc3[C@H](O)[C@H]3COC(=O)[C@H]23)OCO4)cc(OC)c1OC` [PODOFILOX], in the data set on L6, the IC50 amounted to 20 nM.
`O=C(N[C@@H](c1ccccc1)[C@@H](O)C(=O)NCc1cn(Cc2ccccc2Nc2ccnc3cc(Cl)ccc23)nn1)c1ccccc1`: in data set [3], the selectivity ratio turned out to be 28.6. For the same compound, the figures for the IC50 in the data set with L6, in the data set on Plasmodium falciparum [1] and in the data set with Plasmodium falciparum [2] were 30100 nM, 3240 nM and 1050 nM, respectively.
`O=C(N[C@@H](c1ccccc1)[C@@H](O)C(=O)NCc1cn(CCNc2ccnc3cc(Cl)ccc23)nn1)c1ccccc1`: the selectivity ratio in data set [3] was 31.6. Further, the figures for the IC50 with L6, in the data set with Plasmodium falciparum [1] and with Plasmodium falciparum [2] were 85600 nM, 1110 nM and 2710 nM, respectively.
In turn, `OCCNc1ccnc2cc(Cl)ccc12` registered an IC50 with Plasmodium falciparum [2] of 550 nM.
As for `[N-]=[N+]=NCCCNc1ccnc2cc(Cl)ccc12`, in data set [3], the selectivity ratio was determined as 55.8. In addition, the IC50 with L6 stood at 9480 nM; in the data set on Plasmodium falciparum [1], 330 nM; in the data set on Plasmodium falciparum [2], 170 nM.
Take `CC(=O)O[C@@H](C(=O)O[C@@H]1O[C@@H]2O[C@@]3(C)CC[C@H]4[C@H](C)CC[C@@H]([C@H]1C)[C@@]24OO3)[C@@H](NC(=O)c1ccccc1)c1ccccc1`: the “Ratio IC50” value with Plasmodium falciparum [4] came to 3. Further, the selectivity ratio in data set [3] was 166. Moreover, the IC50 is 830 nM in the data set with L6, 0.5 nM in the data set on Plasmodium falciparum [1] and 5 nM in the data set on Plasmodium falciparum [2].
Consider `O=C(N[C@@H](c1ccccc1)[C@@H](O)C(=O)NCCCNc1ccnc2cc(Cl)ccc12)c1ccccc1`, for which the selectivity ratio in data set [3] is 59. Besides, the IC50 in the data set on L6 worked out at 28300 nM; in the data set on Plasmodium falciparum [1], 1000 nM; with Plasmodium falciparum [2], 480 nM.
The compound `O=C(N[C@@H](c1ccccc1)[C@@H](O)C(=O)OCCCNc1ccnc2cc(Cl)ccc12)c1ccccc1` yielded an IC50 in the data set on Plasmodium falciparum [2] of 130 nM.
Regarding `[N-]=[N+]=NCc1cccc(Nc2ccnc3cc(Cl)ccc23)c1`, the selectivity ratio in data set [3] turned out to be 139. The IC50 with L6 was found to be 76600 nM; with Plasmodium falciparum [1], 1110 nM; in the data set on Plasmodium falciparum [2], 550 nM.
The compound `OCc1ccccc1Nc1ccnc2cc(Cl)ccc12` returned a half-inhibitory concentration (IC50) in the data set on Plasmodium falciparum [2] of 40 nM.
In turn, `OCCCNc1ccnc2cc(Cl)ccc12` yielded an IC50 in the data set on Plasmodium falciparum [2] of 410 nM.
